Experimental data published in ChEMBL document CHEMBL1124789, “Angiotensin-converting enzyme inhibitors. 9. Novel [[N-(1-carboxy-3-phenylpropyl)amino]acyl]glycine derivatives with diuretic activity” (J Med Chem, 1990).

Columns and labels:
[1] = molecular target: T1, Angiotensin-converting enzyme (Rattus norvegicus) (UniProt P47820); assay: Inhibition of Angiotensin I converting enzyme(ACE) at the dose of 100 mg/kg (po) in rat; type: organism-based; parameters: dose 100 mg/kg
T1 sequence (whole entry): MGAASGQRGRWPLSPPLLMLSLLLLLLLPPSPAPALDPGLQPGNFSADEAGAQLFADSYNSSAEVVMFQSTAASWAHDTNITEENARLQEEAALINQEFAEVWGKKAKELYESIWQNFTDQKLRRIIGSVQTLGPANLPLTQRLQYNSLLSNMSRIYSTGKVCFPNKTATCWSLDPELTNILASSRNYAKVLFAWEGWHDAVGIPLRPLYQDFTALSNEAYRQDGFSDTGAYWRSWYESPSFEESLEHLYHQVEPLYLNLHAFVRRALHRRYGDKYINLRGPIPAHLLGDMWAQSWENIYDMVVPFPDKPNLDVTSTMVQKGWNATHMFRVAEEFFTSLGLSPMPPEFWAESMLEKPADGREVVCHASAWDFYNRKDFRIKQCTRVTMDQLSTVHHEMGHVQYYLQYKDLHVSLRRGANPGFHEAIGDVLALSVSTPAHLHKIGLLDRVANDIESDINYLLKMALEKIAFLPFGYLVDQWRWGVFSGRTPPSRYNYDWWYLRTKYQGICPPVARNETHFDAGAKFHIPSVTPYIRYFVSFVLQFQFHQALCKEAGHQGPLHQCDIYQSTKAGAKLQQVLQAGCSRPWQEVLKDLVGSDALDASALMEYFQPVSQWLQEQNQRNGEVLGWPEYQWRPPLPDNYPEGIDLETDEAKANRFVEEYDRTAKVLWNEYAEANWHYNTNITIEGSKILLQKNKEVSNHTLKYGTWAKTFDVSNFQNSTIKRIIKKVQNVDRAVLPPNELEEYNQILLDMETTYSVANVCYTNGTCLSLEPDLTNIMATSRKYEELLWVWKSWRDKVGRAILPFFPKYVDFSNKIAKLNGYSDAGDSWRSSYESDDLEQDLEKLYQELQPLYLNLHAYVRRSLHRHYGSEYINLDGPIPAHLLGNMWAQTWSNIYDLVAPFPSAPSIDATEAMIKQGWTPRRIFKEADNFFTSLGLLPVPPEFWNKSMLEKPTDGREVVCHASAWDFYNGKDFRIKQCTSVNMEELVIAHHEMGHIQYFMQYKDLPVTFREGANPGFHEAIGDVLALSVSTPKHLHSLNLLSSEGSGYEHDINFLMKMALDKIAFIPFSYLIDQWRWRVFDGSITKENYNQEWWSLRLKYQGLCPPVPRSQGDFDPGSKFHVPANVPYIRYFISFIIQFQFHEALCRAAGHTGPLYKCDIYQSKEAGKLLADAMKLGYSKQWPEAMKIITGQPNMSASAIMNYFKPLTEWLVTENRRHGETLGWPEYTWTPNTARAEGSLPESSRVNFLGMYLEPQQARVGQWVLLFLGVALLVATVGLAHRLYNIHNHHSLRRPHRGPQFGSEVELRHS

Rattus norvegicus [2] = organism: Rattus norvegicus; assay: Duration of action on ACE in rat; type: functional
[3] = molecular target: T1, Angiotensin-converting enzyme (Rattus norvegicus); assay: Inhibition of Angiotensin I converting enzyme(ACE) at the dose of 100 mg/kg (ip) in rat; type: organism-based; parameters: dose 100 mg/kg
Rattus norvegicus [4] = assay: Diuretic activity (ip);ND- Natriuresis and diuresis; type: functional, organism-based; details: Urine
Rattus norvegicus [5] = assay: Diuretic activity (po);NI- No increase; type: functional, organism-based; details: Urine
[6] = molecular target: T1, Angiotensin-converting enzyme (Rattus norvegicus); assay: (§1) In vitro inhibitory activity against Angiotensin I converting enzyme (ACE); details: concentration not given here
[7] = molecular target: T1, Angiotensin-converting enzyme (Rattus norvegicus); assay: Inhibition of Angiotensin I converting enzyme(ACE) at the dose of 10 mg/kg (ip) in rat; type: organism-based; parameters: dose 10 mg/kg; scale not given: the % may be the effect or the level left
[8] = molecular target: T1, Angiotensin-converting enzyme (Rattus norvegicus); assay: Inhibition of Angiotensin I converting enzyme(ACE) at the dose of 10 mg/kg (po) in rat; type: organism-based; parameters: dose 10 mg/kg
[9] = molecular target: T2, Angiotensin-converting enzyme (Rattus norvegicus, UniProt P47820); assay: In vitro inhibitory activity against Angiotensin I converting enzyme(ACE)
T2 sequence (P47820 whole entry): T1 sequence (whole entry)

Rattus norvegicus [10] = assay: Diuretic activity (ip); NI-No Increase; type: functional, organism-based; details: Urine
[11] = molecular target: T2, Angiotensin-converting enzyme; assay: as §1
[12] = molecular target: T1, Angiotensin-converting enzyme (Rattus norvegicus); assay: Inhibition of Angiotensin I converting enzyme(ACE) at the dose of 30 mg/kg (po) in rat; type: organism-based; parameters: dose 30 mg/kg
Rattus norvegicus [13] = assay: Diuretic activity (po); NI-No Increase; type: functional, organism-based; details: Urine
Rattus norvegicus [14] = assay: Diuretic activity (ip);NI- No increase; type: functional, organism-based; details: Urine
Rattus norvegicus [15] = assay: Diuretic activity (po);ND- Natriuresis and diuresis; type: functional, organism-based; details: Urine

SMILES	ACE inhibition [1]	Duration (Rattus norvegicus [2])	ACE inhibition [3]	IC50 [9]	other results
CCOC(=O)C(CCc1ccccc1)N[C@@H](C)C(=O)N(C1Cc2ccccc2C1)[C@H](CCCCNC(=O)c1ccc(Cl)c(S(N)(=O)=O)c1)C(=O)O.Cl (some centres undefined)	50%	3 h	50%		Activity (Rattus norvegicus [4]): Natriuresis and diuresis
CCOC(=O)[C@H](CCc1ccccc1)N[C@@H](C)C(=O)N(CC(=O)O)[C@H](CC(C)C)C1Nc2cc(Cl)c(S(N)(=O)=O)cc2S(=O)(=O)N1.Cl (some centres undefined)		<1 h			Activity (Rattus norvegicus [5]): No increase; inhibition [6]: < 20%; Activity [7]: 50%; ACE inhibition [8]: < 30%
Br.C[C@H](N[C@@H](CCc1ccccc1)C(=O)O)C(=O)N(C1CCC2(CC1)Nc1cc(Cl)c(S(N)(=O)=O)cc1S(=O)(=O)N2)C(CCCCN)C(=O)O (some centres undefined)	50%	<1 h		95 µM	Activity (Rattus norvegicus [4]): Natriuresis and diuresis
CCOC(=O)[C@H](CCc1ccccc1)N[C@@H](C)C(=O)N(CC(=O)O)Cc1cc(C(C)(C)C)cc(I)c1O	< 30%		80%	80 µM	Activity (Rattus norvegicus [10]): No increase
CCOC(=O)[C@H](CCc1ccccc1)N[C@@H](CCCCNC(=O)c1ccc(Cl)c(S(N)(=O)=O)c1)C(=O)N1CCC[C@H]1C(=O)O.Cl	80%	3 h	80%		IC50 [11]: 15 µM; ACE inhibition [8]: 80%; Activity (Rattus norvegicus [4]): Natriuresis and diuresis
C[C@H](N[C@@H](CCc1ccccc1)C(=O)O)C(=O)N(CC(=O)O)CC(=O)Nc1cc(C(=O)O)cc(S(N)(=O)=O)c1Cl.Cl	< 30%	3 h	80%	2.2 µM	ACE inhibition [12]: < 30%; Activity (Rattus norvegicus [13]): No increase
C[C@H](N[C@@H](CCc1ccccc1)C(=O)O)C(=O)N(CC(=O)O)C1CCC2(CC1)Nc1cc(Cl)c(S(N)(=O)=O)cc1S(=O)(=O)N2 (some centres undefined)	80%	3 h		3.5 µM	
CCOC(=O)c1cc(S(N)(=O)=O)c(NCCCC[C@H](C(=O)O)N(Cc2ccccc2)C(=O)[C@H](C)N[C@@H](CCc2ccccc2)C(=O)OCC)cc1Cl.Cl	< 30%	3 h	80%	22 µM	Activity (Rattus norvegicus [14]): No increase
C[C@H](N[C@@H](CCc1ccccc1)C(=O)O)C(=O)N(CC(=O)O)[C@H](C)C1Nc2cc(Cl)c(S(N)(=O)=O)cc2S(=O)(=O)N1 (some centres undefined)	80%	3 h		2.7 µM	ACE inhibition [12]: < 30%
CCOC(=O)[C@H](CCc1ccccc1)N[C@@H](C)C(=O)N(CC(=O)O)N(C)CC1Nc2cc(Cl)c(S(N)(=O)=O)cc2S(=O)(=O)N1.Cl (some centres undefined)	50%	<1 h			inhibition [6]: 74%; Activity (Rattus norvegicus [15]): Natriuresis and diuresis; Activity [7]: 80%
Cl.NS(=O)(=O)c1cc(C(=O)NCCCC[C@H](N[C@@H](CCc2ccccc2)C(=O)O)C(=O)N(CC(=O)O)C2Cc3ccccc3C2)ccc1Cl		3 h			IC50 [11]: 0.007 µM; Activity (Rattus norvegicus [5]): No increase
C[C@H](N[C@@H](CCc1ccccc1)C(=O)O)C(=O)N(CC(=O)O)Cc1cc(C(C)(C)C)cc(I)c1O.Cl		3 h	100%	0.16 µM	Activity (Rattus norvegicus [14]): No increase
NS(=O)(=O)c1cc2c(cc1Cl)NC(CN(CC(=O)O)C(=O)[C@H](CCCCNC(=O)OCc1ccccc1)N[C@@H](CCc1ccccc1)C(=O)O)NS2(=O)=O (some centres undefined)		<1 h	100%		IC50 [11]: 0.24 µM; Activity (Rattus norvegicus [5]): No increase
CCOC(=O)c1cc(S(N)(=O)=O)c(Cl)cc1NCCCC[C@H](C(=O)O)N(Cc1ccccc1)C(=O)[C@H](C)N[C@@H](CCc1ccccc1)C(=O)OCC.Cl	80%	<1 h	100%	28 µM	ACE inhibition [12]: 80%; ACE inhibition [8]: 50%; Activity (Rattus norvegicus [10]): No increase
